According to US8530460B2, “Azetidine derivatives” (Boehringer Ingelheim International GmbH, priority 2011, dated 2013):
pIC50: −log10 of the molar value.

Target: human ACC2 (Homo sapiens (Human), UniProt O00763)
Experiment: ACC2 assay (spectrophotometric 384 well assay, NADH-linked coupled lactate dehydrogenase/pyruvate kinase)
Assay type: biochemical
Conditions: hACC2 construct lacking 128 N-terminal amino acids; 25° C., 340 nm, 15 minutes
Protocol: Spectrophotometric 384 Well Assay
Malonyl CoA formation by acetyl CoA carboxylases is stoichometrically linked to the consumption of ATP. ACC2 activity is measured in a NADH-linked kinetic method measuring ADP generated during the ACC reaction using a coupled lactate dehydrogenase/pyruvate kinase reaction.
For biological testing, a human ACC2 construct which lacks the 128 amino acids at the N-terminus for increased solubility (nt 385-6966 in Genbank entry AJ575592) is cloned. The protein is then expressed in insect cells using a baculoviral expression system. Protein purification is performed by anion exchange.
All compounds are dissolved in dimethyl sulfoxide (DMSO) to a concentration of 10 mM.
Assay reactions are then carried out in 384-well plates, with hACC2 in an appropriate dilution and at final assay concentrations (f.c.) of 100 mM Tris (pH 7.5), 10 mM trisodium citrate, 25 mM KHCO3, 10 mM MgCl2, 0.5 mg/ml BSA, 3.75 mM reduced L-glutathione, 15 U/ml lactate dehydrogenase, 0.5 mM phosphoenolpyruvate, 15 U/ml pyruvate kinase, compounds at different concentrations at final DMSO concentrations of 1%.
The enzymatic reaction is then started by addition of a mixture of NADH, acetyl Coenzyme A (both 200 μM f.c.) and ATP (500 uM f.c.). The decrease of the optical density (slope S) is then determined at 25° C. at a wavelength of 340 nm over 15 minutes in a spectrophotometric reader.
Each assay microtiter plate contains wells with vehicle instead of compound as controls for the non-inhibited enzyme (100% CTL; ‘HIGH’) and wells without acetyl-CoA as controls for non-specific NADH degradation (0% CTL; ‘LOW’).
The slope S is used for calculation of % CTL=(S(compound)−S(‘LOW’))/(S(‘HIGH’)—S(‘LOW’))*100. Compounds will give values between 100% CTL (no inhibition) and 0% CTL (complete inhibition).
For IC50 value determination, the sample slope in the presence of the test compound after subtraction of the low controls (S(compound)−S(‘LOW’)) are used.
An IC50 value is derived from the compound slopes at different dosages after subtraction of the low controls (S(compound)−S(‘LOW’)) by non-linear regression curve fitting (equation y=(A+((B−A)/(1+((C/x)^D))))).

Sequence of human ACC2 (O00763 129-2458): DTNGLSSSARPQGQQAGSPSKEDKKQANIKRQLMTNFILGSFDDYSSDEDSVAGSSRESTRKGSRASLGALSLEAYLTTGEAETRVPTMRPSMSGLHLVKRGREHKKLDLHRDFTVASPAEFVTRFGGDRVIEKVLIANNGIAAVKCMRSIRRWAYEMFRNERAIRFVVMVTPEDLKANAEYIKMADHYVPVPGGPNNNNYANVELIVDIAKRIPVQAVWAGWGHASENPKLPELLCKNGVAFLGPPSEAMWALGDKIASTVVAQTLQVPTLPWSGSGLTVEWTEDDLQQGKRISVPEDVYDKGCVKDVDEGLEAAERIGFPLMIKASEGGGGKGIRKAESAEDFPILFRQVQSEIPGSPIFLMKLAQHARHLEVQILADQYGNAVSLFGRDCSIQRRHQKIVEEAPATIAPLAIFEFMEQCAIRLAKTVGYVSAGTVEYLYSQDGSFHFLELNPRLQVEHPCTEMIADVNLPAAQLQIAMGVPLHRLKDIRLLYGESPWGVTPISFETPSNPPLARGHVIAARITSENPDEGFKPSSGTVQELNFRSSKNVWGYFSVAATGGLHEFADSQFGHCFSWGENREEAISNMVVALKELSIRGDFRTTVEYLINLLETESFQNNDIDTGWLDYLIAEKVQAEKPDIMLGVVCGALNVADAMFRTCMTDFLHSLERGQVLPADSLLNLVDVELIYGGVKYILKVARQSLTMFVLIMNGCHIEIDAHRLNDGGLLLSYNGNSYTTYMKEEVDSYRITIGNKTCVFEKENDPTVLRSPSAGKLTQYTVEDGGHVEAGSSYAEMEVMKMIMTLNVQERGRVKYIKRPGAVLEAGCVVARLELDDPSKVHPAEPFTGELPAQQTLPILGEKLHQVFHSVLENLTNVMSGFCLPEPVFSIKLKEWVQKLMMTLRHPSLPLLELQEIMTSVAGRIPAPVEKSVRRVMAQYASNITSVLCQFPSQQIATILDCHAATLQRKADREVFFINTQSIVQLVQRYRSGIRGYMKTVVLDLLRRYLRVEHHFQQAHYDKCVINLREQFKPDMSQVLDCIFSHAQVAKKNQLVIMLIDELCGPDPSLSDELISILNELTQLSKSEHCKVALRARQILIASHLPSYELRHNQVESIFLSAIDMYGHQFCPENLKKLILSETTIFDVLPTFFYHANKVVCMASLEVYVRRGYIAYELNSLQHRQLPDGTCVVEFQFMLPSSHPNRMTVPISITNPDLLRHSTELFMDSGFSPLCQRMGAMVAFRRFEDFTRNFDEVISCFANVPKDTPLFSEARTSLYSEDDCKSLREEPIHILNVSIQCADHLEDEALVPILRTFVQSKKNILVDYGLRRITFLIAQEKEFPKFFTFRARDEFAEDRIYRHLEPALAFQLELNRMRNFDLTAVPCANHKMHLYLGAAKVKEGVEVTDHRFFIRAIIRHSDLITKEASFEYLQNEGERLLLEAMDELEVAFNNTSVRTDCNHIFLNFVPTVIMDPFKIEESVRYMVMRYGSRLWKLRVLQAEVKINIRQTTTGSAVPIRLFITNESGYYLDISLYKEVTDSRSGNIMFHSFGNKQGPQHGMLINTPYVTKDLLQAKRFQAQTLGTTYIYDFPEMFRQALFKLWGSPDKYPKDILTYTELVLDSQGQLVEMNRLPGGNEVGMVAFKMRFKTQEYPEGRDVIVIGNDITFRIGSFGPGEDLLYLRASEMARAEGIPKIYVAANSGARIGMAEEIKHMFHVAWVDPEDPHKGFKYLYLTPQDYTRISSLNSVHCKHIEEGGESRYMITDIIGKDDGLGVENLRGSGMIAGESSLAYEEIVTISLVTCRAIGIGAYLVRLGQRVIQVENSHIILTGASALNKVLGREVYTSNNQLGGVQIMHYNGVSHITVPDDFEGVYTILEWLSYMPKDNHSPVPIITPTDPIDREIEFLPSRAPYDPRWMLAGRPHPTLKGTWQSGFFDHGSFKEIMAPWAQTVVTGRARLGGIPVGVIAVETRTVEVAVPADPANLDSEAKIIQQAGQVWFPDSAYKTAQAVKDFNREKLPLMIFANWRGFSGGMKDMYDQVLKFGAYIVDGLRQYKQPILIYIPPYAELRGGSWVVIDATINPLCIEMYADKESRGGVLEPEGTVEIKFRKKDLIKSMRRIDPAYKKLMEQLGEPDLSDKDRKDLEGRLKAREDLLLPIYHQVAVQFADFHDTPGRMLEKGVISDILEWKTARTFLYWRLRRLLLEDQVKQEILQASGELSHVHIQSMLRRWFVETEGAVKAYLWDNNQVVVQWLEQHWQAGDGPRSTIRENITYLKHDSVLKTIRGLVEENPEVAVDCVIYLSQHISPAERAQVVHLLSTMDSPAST

Row | SMILES | pIC50
1 | CC(=O)N[C@@H](C)c1ccc(OC2CN(c3ccc(OCC4CC4)cc3)C2)cn1 (stereo in doubt) [Example 14, N-(1-{5-[1-(4-Cyclopropylmethoxy-phenyl)-azetidin-3-yloxy]-pyridin-2-yl}-ethyl)-acetamide] | 5.69
2 | CC(=O)NC(C)c1ccc(OC2CN(c3ccc4c(c3)OCCO4)C2)cc1 (stereo not drawn) [Example 1.2] | 6.62
3 | CCOc1ccc(N2CC(Oc3ccc(C(C)NC(C)=O)cc3)C2)cc1 (stereo not drawn) [Example 1.5] | 6.70
4 | CC(=O)NC(C)c1ccc(OC2CN(c3ccc(OC4CCCC4)cc3)C2)cc1 (stereo not drawn) [Example 1.6] | 7.10
5 | CC(=O)NC(C)c1ccc(OC2CN(c3ncc(Br)cn3)C2)cc1 (stereo not drawn) [Example 1.8] | 6.26
6 | CC(=O)NC(C)c1ccc(OC2CN(c3cnc(OC4CCC4)nc3)C2)cc1 (stereo not drawn) [Example 1.10] | 6.17
7 | CC(=O)NC(C)Cc1ccc(OC2CN(c3ccc(C(C)(C)C)cc3)C2)cc1 (stereo not drawn) [Example 1.11] | 5.66
8 | CCOc1ccc(N2CC(Oc3ccc(CC(C)NC(C)=O)cc3)C2)cc1 (stereo not drawn) [Example 1.12] | 5.27
9 | CC(=O)N[C@@H](C)c1ccc(OC2CN(c3ccc(OCC4CC4)cc3)C2)cc1 [Example 1.14] | 7.15
10 | CC(=O)N[C@@H](C)c1ccc(OC2CN(c3ccc4c(c3)OCCCO4)C2)cc1 [Example 1.16] | 6.35
11 | CC(=O)N[C@@H](C)c1ccc(OC2CN(c3ccc4c(c3)OCC(C)(C)CO4)C2)cc1 [Example 1.18] | 6.85
12 | CCOc1ccc(N2CC(Oc3ccc([C@H](C)NC(C)=O)cc3)C2)cc1 [Example 1.19] | 7.05
13 | COc1cc(OC2CCC2)ccc1N1CC(Oc2ccc([C@H](C)NC(C)=O)cc2)C1 [Example 1.20] | 6.31
14 | CCCOc1ccc(N2CC(Oc3ccc([C@H](C)NC(C)=O)cc3)C2)c(OC)c1 [Example 1.21] | 6.72
15 | CC(=O)N[C@@H](C)c1ccc(OC2CN(c3ccc(C(F)(F)F)cc3C#N)C2)cc1 [Example 1.23] | 5.55
16 | CCCOc1ccc(N2CC(Oc3ccc([C@H](C)NC(C)=O)cc3)C2)c(C#N)c1 [Example 1.25] | 6.24
17 | CC(=O)N[C@@H](C)c1ccc(OC2CN(c3ccc4c(c3)OC(F)(F)O4)C2)cc1 [Example 1.26] | 6.13
18 | CC(=O)N[C@@H](C)c1ccc(OC2CN(c3ccc4oc(C)nc4c3)C2)cc1 [Example 1.27] | 5.76
19 | CC(=O)N[C@@H](C)c1ccc(OC2CN(c3ccc4oc(-c5ccccc5)nc4c3)C2)cc1 [Example 1.28] | 5.79

Row | SMILES | pIC50
20 | CC(=O)N[C@@H](C)c1ccc(OC2CN(c3ccc4c(c3)OCCCC4(C)C)C2)cc1 [Example 1.29] | 6.72
21 | CCOc1cccc(N2CC(Oc3ccc([C@H](C)NC(C)=O)cc3)C2)c1 [Example 1.30] | 6.17
22 | CCCOc1ccc(N2CC(Oc3ccc([C@H](C)NC(=O)N(C)C)cc3)C2)cc1 [Example 1.31] | 6.72
23 | CCCOc1ccc(N2CC(Oc3ccc([C@H](C)NC(=O)C4CC4)cc3)C2)cc1 [Example 1.35] | 7.22
24 | COc1cc(OC(C)C)ccc1N1CC(Oc2ccc([C@H](C)NC(C)=O)cc2)C1 [Example 1.37] | 5.64
25 | CCC(C)Oc1ccc(N2CC(Oc3ccc([C@H](C)NC(C)=O)cc3)C2)c(OC)c1 (stereo partly drawn) [Example 1.38] | 5.64
26 | C[C@H](NC(=O)C1CC1)c1ccc(OC2CN(c3ccc(OCC4CC4)cc3)C2)cc1 [Example 1.40] | 5.99
27 | C[C@H](NC(=O)C1CC1)c1ccc(OC2CN(c3ccc4c(c3)OCCO4)C2)cc1 [Example 1.41] | 5.91
28 | CC(=O)N[C@@H](C)c1ccc(OC2CN(c3c(F)cc(OC4CC4)cc3F)C2)cc1 [Example 1.45] | 6.89
29 | CC(=O)N[C@@H](C)c1ccc(OC2CN(c3ccc(OCC4CC4)cc3C#N)C2)cc1 [Example 1.47] | 6.40
30 | CCCOc1cccc(N2CC(Oc3ccc([C@H](C)NC(C)=O)cc3)C2)c1 [Example 1.48] | 5.99
31 | CC(=O)N[C@@H](C)c1ccc(OC2CN(c3cccc(OCC(C)C)c3)C2)cc1 [Example 1.49] | 5.95
32 | CCOc1ccc(N2CC(Oc3ccc([C@H](C)NC(C)=O)cc3)C2)nc1 [Example 1.51] | 6.57
33 | CCCOc1ccc(N2CC(Oc3ccc([C@H](C)NC(C)=O)cc3)C2)nc1 [Example 1.52] | 7.05
34 | CC(=O)N[C@@H](C)c1ccc(OC2CN(c3cc4c(cc3F)OCCCO4)C2)cc1 [Example 1.53] | 6.12
35 | CC(=O)N[C@@H](C)c1ccc(OC2CN(c3ccc(OCC4CC4(F)F)cc3F)C2)cc1 (stereo partly drawn) [Example 1.54] | 7.40
36 | CC(=O)N[C@@H](C)c1ccc(OC2CN(c3ccc(OC4CC4)cc3F)C2)cc1 [Example 1.55] | 6.96
37 | CC(=O)N[C@@H](C)c1ccc(OC2CN(c3cccc(C(F)(F)F)c3)C2)cc1 [Example 1.56] | 6.82

Continued, values first:

Row | pIC50 | SMILES
38 | 6.74 | CC(=O)NC(C)c1ccc(OC2CN(c3ccc(C(C)(C)C)cc3)C2)cc1 (stereo not drawn) [Example 1.1, N-(1-(4-(1-(4-tert-Butylphenyl)azetidin-3-yloxy)phenyl)ethyl)acetamide]
39 | 6.28 | CC(=O)NC(C)c1ccc(OC2CN(c3ccc(OC4CC4)cc3)C2)cc1 (stereo not drawn) [Example 1.3]
40 | 6.89 | CC(=O)NC(C)c1ccc(OC2CN(c3ccc(OC4CCC4)cc3)C2)cc1 (stereo not drawn) [Example 1.4]
41 | 5.90 | CCNc1ncc(N2CC(Oc3ccc(C(C)NC(C)=O)cc3)C2)cn1 (stereo not drawn) [Example 1.7]
42 | 6.25 | CCCOc1ccc(N2CC(Oc3ccc(C(C)NC(C)=O)cc3)C2)cn1 (stereo not drawn) [Example 1.9]
43 | 7.15 | CCCOc1ccc(N2CC(Oc3ccc([C@H](C)NC(C)=O)cc3)C2)cc1 [Example 1.13]
44 | 6.74 | CC(=O)N[C@@H](C)c1ccc(OC2CN(c3cnc(NC4CCC4)nc3)C2)cc1 [Example 1.15]
45 | 5.72 | CCOc1ccc(N2CC(Oc3ccc([C@H](C)NC(C)=O)cc3)C2)c(OC)c1 [Example 1.17]
46 | 5.93 | COc1ccc(N2CC(Oc3ccc([C@H](C)NC(C)=O)cc3)C2)c(C#N)c1 [Example 1.22]
47 | 6.92 | CC(=O)N[C@@H](C)c1ccc(OC2CN(c3ccc4c(c3)OCCO4)C2)cc1 [Example 1.24]
48 | 6.72 | C[C@H](NC(=O)N(C)C)c1ccc(OC2CN(c3ccc(OC4CC4)cc3)C2)cc1 [Example 1.32]
49 | 6.70 | C[C@H](NC(=O)N(C)C)c1ccc(OC2CN(c3ccc(OCC4CC4)cc3)C2)cc1 [Example 1.33]
50 | 6.47 | C[C@H](NC(=O)N(C)C)c1ccc(OC2CN(c3ccc4c(c3)OCCO4)C2)cc1 [Example 1.34]
51 | 5.55 | COc1cc(OCC2CC2)ccc1N1CC(Oc2ccc([C@H](C)NC(C)=O)cc2)C1 [Example 1.36]
52 | 6.46 | C[C@H](NC(=O)C1CC1)c1ccc(OC2CN(c3ccc(OC4CC4)cc3)C2)cc1 [Example 1.39]
53 | 5.98 | CCCOc1cccc(N2CC(Oc3ccc([C@H](C)NC(=O)N(C)C)cc3)C2)c1 [Example 1.42]
54 | 5.89 | COc1cc(OC2CC2)ccc1N1CC(Oc2ccc([C@H](C)NC(C)=O)cc2)C1 [Example 1.43]
55 | 6.60 | CC(=O)N[C@@H](C)c1ccc(OC2CN(c3ccc(OC4CC4)cc3C)C2)cc1 [Example 1.44]
56 | 6.77 | CC(=O)N[C@@H](C)c1ccc(OC2CN(c3ccc(OC4CCC4)cc3C#N)C2)cc1 [Example 1.46]
57 | 6.13 | CC(=O)N[C@@H](C)c1ccc(OC2CN(c3cc4c(cc3F)OCCO4)C2)cc1 [Example 1.57]
